Experimental data as given in the supplement of paper PMC10627819.

Columns and labels:
[1] = tested on: B. subtilis 168; test: Bliss interaction score (quartile over a dose matrix) (fitness difference); higher = more antagonism (negative = synergy)
How it was run: (§1)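 At entry into stationary phase, OD595 was recorded and divided by the robust mean of the no-drug wells on that plate, with any value above 1 set to 1. This gives the fitness measure used throughout. Single-drug fitness was inferred from combination data, and the Bliss score, observed minus product-expected fitness, is shown as quartiles across technical, biological and donor/recipient replicates.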

[2] = tested on: S. aureus Newman; test: as above
How it was run: as §1

[3] = tested on: S. pneumoniae D39V; test: as above
How it was run: as §1

[4] = tested on: S. aureus DSM 20231; test: as above
How it was run: as §1

[5] = tested on: S. aureus Newman; test: fitness (endpoint OD595 vs no drug) (fraction); higher = more growth
How it was run: (§2)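 Bacterial growth was followed in 384-well plates seeded at OD595 0.01, with 30 µl per well, or 55 µl for S. pneumoniae, in TSB, LB Lennox or CY at 37 °C. OD595 was read every 30 min for 14 h, and each reading had the first reading subtracted as background. Fitness is the background-corrected optical density at entry into stationary phase divided by the robust mean of the no-drug control wells. This ratio is capped at 1.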

[6] = tested on: S. pneumoniae D39V; test: as above
How it was run: as §2
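Throughout, for Bliss interaction score (quartile over a dose matrix): first quartile when negative (synergy) and third quartile when positive (antagonism).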

CC1(C)S[C@@H]2[C@H](NC(=O)[C@H](N)c3ccc(O)cc3)C(=O)N2[C@H]1C(=O)O [Amoxicillin] + CC[C@H](C)[C@H](N)C1=N[C@H](C(=O)N[C@@H](CC(C)C)C(=O)N[C@H](CCC(=O)O)C(=O)N[C@H](C(=O)N[C@H]2CCCCNC(=O)[C@H](CC(N)=O)NC(=O)[C@@H](CC(=O)O)NC(=O)[C@H](Cc3cnc[nH]3)NC(=O)[C@@H](Cc3ccccc3)NC(=O)[C@H]([C@@H](C)CC)NC(=O)[C@@H](CCCN)NC2=O)[C@@H](C)CC)CS1 [Bacitracin]
main component drawn
Settings | Bliss interaction score
[1] | -0.101
[2] | 0.0659
[3] | 0.104
[4] | -0.0167

[5], partner 75 µg/mL, main component drawn
Settings | fitness
first compound 0.0625 µg/mL | 0.0143
first compound 0.125 µg/mL | 0.0081
first compound 0.25 µg/mL | 0.0047

CC1(C)S[C@@H]2[C@H](NC(=O)[C@H](N)c3ccc(O)cc3)C(=O)N2[C@H]1C(=O)O [Amoxicillin] + CN(C)c1cc(NC(=O)CNC(C)(C)C)c(O)c2c1C[C@H]1C[C@H]3[C@H](N(C)C)C(O)=C(C(N)=O)C(=O)[C@@]3(O)C(O)=C1C2=O [Tigecycline]
Settings | Bliss interaction score
[1] | -0.0604
[2] | 0.0642
[3] | 0.0424
[4] | -0.0322

Settings | fitness
[5], first compound 0.0625 µg/mL, partner 0.039 µg/mL | 0.892
[5], first compound 0.0625 µg/mL, partner 0.078 µg/mL | 0.903
[5], first compound 0.0625 µg/mL, partner 0.156 µg/mL | 0.884
[5], first compound 0.125 µg/mL, partner 0.039 µg/mL | 0.875
[5], first compound 0.125 µg/mL, partner 0.078 µg/mL | 0.922
[5], first compound 0.125 µg/mL, partner 0.156 µg/mL | 0.862
[5], first compound 0.25 µg/mL, partner 0.039 µg/mL | 0.799
[5], first compound 0.25 µg/mL, partner 0.078 µg/mL | 0.867
[5], first compound 0.25 µg/mL, partner 0.156 µg/mL | 0.817
[6], first compound 0.0008 µg/mL, partner 0.65 µg/mL | 0.928
[6], first compound 0.0008 µg/mL, partner 1.3 µg/mL | ≥ 1
[6], first compound 0.0008 µg/mL, partner 2.6 µg/mL | 0.968
[6], first compound 0.0015 µg/mL, partner 0.325 µg/mL | 0.941
[6], first compound 0.0015 µg/mL, partner 0.65 µg/mL | 0.942
[6], first compound 0.0015 µg/mL, partner 1.3 µg/mL | 0.994
[6], first compound 0.0015 µg/mL, partner 2.6 µg/mL | 0.956
[6], first compound 0.003 µg/mL, partner 0.325 µg/mL | 0.904
[6], first compound 0.003 µg/mL, partner 0.65 µg/mL | 0.921
[6], first compound 0.003 µg/mL, partner 1.3 µg/mL | 0.944
[6], first compound 0.003 µg/mL, partner 2.6 µg/mL | 0.877

fitness, [6], one replicate
Settings | partner 0.325 µg/mL | partner 0.65 µg/mL | partner 1.3 µg/mL
first compound 0.0008 µg/mL | 0.969 | – | –
first compound 0.006 µg/mL | 0.386 | 0.449 | 0.458

CC1(C)S[C@@H]2[C@H](NC(=O)[C@H](N)c3ccc(O)cc3)C(=O)N2[C@H]1C(=O)O [Amoxicillin] + CN[C@@H]1[C@H](O[C@H]2[C@H](O[C@H]3[C@H](O)[C@@H](O)[C@H](N=C(N)N)[C@@H](O)[C@@H]3N=C(N)N)O[C@@H](C)[C@]2(O)C=O)O[C@@H](CO)[C@H](O)[C@H]1O [Streptomycin]
Settings | Bliss interaction score
[1] | -0.054
[2] | -0.0764
[3] | 0.0594
[4] | -0.0777

fitness
Settings | first compound 0.0008 µg/mL | first compound 0.0015 µg/mL | first compound 0.003 µg/mL | first compound 0.0625 µg/mL | first compound 0.125 µg/mL | first compound 0.25 µg/mL
[5], partner 1 µg/mL | – | – | – | 0.857 | 0.856 | 0.845
[5], partner 2 µg/mL | – | – | – | 0.823 | 0.792 | 0.798
[6], partner 2 µg/mL | 0.979 | 0.931 | 0.899 | – | – | –
[6], partner 4 µg/mL | 0.947 | 0.877 | 0.866 | – | – | –
[6], partner 8 µg/mL | 0.968 | 0.929 | 0.895 | – | – | –

one replicate
Settings | fitness
[5], first compound 0.0625 µg/mL, partner 8 µg/mL | 0.0265
[5], first compound 0.125 µg/mL, partner 8 µg/mL | 0.0373
[5], first compound 0.25 µg/mL, partner 8 µg/mL | 0.0414
[6], first compound 0.0008 µg/mL, partner 16 µg/mL | 0.807
[6], first compound 0.0015 µg/mL, partner 16 µg/mL | 0.749
[6], first compound 0.003 µg/mL, partner 16 µg/mL | 0.724
[6], first compound 0.006 µg/mL, partner 2 µg/mL | 0.488
[6], first compound 0.006 µg/mL, partner 4 µg/mL | 0.413
[6], first compound 0.006 µg/mL, partner 8 µg/mL | 0.274

CC1(C)S[C@@H]2[C@H](NC(=O)[C@H](N)c3ccc(O)cc3)C(=O)N2[C@H]1C(=O)O [Amoxicillin] + CO/N=C(\C(=O)N[C@@H]1C(=O)N2C(C(=O)O)=C(COC(N)=O)CS[C@H]12)c1ccco1 [Cefuroxime]
Settings | Bliss interaction score
[1] | 0.0792
[2] | 0.097
[3] | 0.0491
[4] | -0.127

fitness, [5], one replicate
Settings | first compound 0.0625 µg/mL | first compound 0.125 µg/mL | first compound 0.25 µg/mL
partner 0.04875 µg/mL | 0.944 | 0.932 | 0.841
partner 0.0975 µg/mL | 0.895 | 0.804 | 0.747
partner 0.195 µg/mL | 0.895 | 0.805 | 0.772

CC1(C)S[C@@H]2[C@H](NC(=O)[C@H](N)c3ccc(O)cc3)C(=O)N2[C@H]1C(=O)O [Amoxicillin] + O=C(O)c1cn(C2CC2)c2cc(N3CCNCC3)c(F)cc2c1=O [Ciprofloxacin]
Settings | Bliss interaction score
[1] | -0.063
[2] | -0.0561
[3] | 0.0751
[4] | -0.0788

Settings | fitness
[5], first compound 0.0625 µg/mL, partner 0.0375 µg/mL | 0.734
[5], first compound 0.0625 µg/mL, partner 0.075 µg/mL | 0.656
[6], first compound 0.0008 µg/mL, partner 0.125 µg/mL | 0.93
[6], first compound 0.0008 µg/mL, partner 0.25 µg/mL | 0.834
[6], first compound 0.0015 µg/mL, partner 0.125 µg/mL | 0.94
[6], first compound 0.0015 µg/mL, partner 0.25 µg/mL | 0.828
[6], first compound 0.003 µg/mL, partner 0.125 µg/mL | 0.934
[6], first compound 0.003 µg/mL, partner 0.25 µg/mL | 0.826
[6], first compound 0.003 µg/mL, partner 0.5 µg/mL | 0.747

fitness, one replicate
Settings | partner 0.078 µg/mL | partner 0.125 µg/mL | partner 0.156 µg/mL | partner 0.25 µg/mL | partner 0.312 µg/mL | partner 0.5 µg/mL
[5], first compound 0.0625 µg/mL | 0.327 | – | 0.075 | – | 0.0582 | –
[5], first compound 0.125 µg/mL | 0.192 | – | 0.0621 | – | 0.038 | –
[5], first compound 0.25 µg/mL | 0.144 | – | 0.056 | – | 0.0663 | –
[6], first compound 0.006 µg/mL | – | 0.549 | – | 0.474 | – | 0.453
